In PubChem BioAssay AID1259407 (Chemical Carcinogenesis Research Information System (CCRIS), 2018):
Calls of active or inactive are those of the source. No rule for the calls is given here.

Test system: CCRIS mutagenicity, Ames/micronucleus/aberration tests
Experiment: CCRIS mutagenicity studies
[1] = Test System: AMES SALMONELLA TYPHIMURIUM, Strain/Indicator: TA98, Metabolic Activation: NONE, Method: PREINCUBATION
[2] = Test System: AMES SALMONELLA TYPHIMURIUM, Strain/Indicator: TA98, Metabolic Activation: NONE, Method: STANDARD PLATE
[3] = Test System: AMES SALMONELLA TYPHIMURIUM, Strain/Indicator: TA98, Metabolic Activation: RAT, LIVER, S-9, AROCLOR 1254, Method: STANDARD PLATE
[4] = Test System: AMES SALMONELLA TYPHIMURIUM, Strain/Indicator: TA100, Metabolic Activation: NONE, Method: PREINCUBATION
[5] = Test System: AMES SALMONELLA TYPHIMURIUM, Strain/Indicator: TA100, Metabolic Activation: NONE, Method: STANDARD PLATE
[6] = Test System: AMES SALMONELLA TYPHIMURIUM, Strain/Indicator: TA100, Metabolic Activation: RAT, LIVER, S-9, AROCLOR 1254, Method: STANDARD PLATE
[7] = Test System: AMES SALMONELLA TYPHIMURIUM, Strain/Indicator: TA1535, Metabolic Activation: NONE, Method: PREINCUBATION
[8] = Test System: AMES SALMONELLA TYPHIMURIUM, Strain/Indicator: TA1535, Metabolic Activation: NONE, Method: STANDARD PLATE
[9] = Test System: AMES SALMONELLA TYPHIMURIUM, Strain/Indicator: TA1535, Metabolic Activation: RAT, LIVER, S-9, AROCLOR 1254, Method: STANDARD PLATE
[10] = Test System: AMES SALMONELLA TYPHIMURIUM, Strain/Indicator: TA1537, Metabolic Activation: NONE, Method: STANDARD PLATE
[11] = Test System: AMES SALMONELLA TYPHIMURIUM, Strain/Indicator: TA1537, Metabolic Activation: RAT, LIVER, S-9, AROCLOR 1254, Method: STANDARD PLATE

Measured: mutagenic call

CNc1ccc(N(CCO)CCO)cc1[N+](=O)[O-]
inactive: End Point: IN VITRO CHROMOSOMAL ABERRATIONS, Test System: CHO-LB CELLS, Metabolic Activation: NONE inactive; negative | [2] inactive; negative | [3] inactive; negative | [5] inactive; negative | [6] inactive; negative | Test System: AMES SALMONELLA TYPHIMURIUM, Strain/Indicator: TA1535, Metabolic Activation: HAMSTER, LIVER, S-9, AROCLOR 1254 (10%), Method: PREINCUBATION inactive; negative | Test System: AMES SALMONELLA TYPHIMURIUM, Strain/Indicator: TA1535, Metabolic Activation: HAMSTER, LIVER, S-9, AROCLOR 1254, Method: PREINCUBATION inactive; negative | [7] inactive; negative | [8] inactive; negative | Test System: AMES SALMONELLA TYPHIMURIUM, Strain/Indicator: TA1535, Metabolic Activation: RAT, LIVER, S-9, AROCLOR 1254 (10%), Method: PREINCUBATION inactive; negative | Test System: AMES SALMONELLA TYPHIMURIUM, Strain/Indicator: TA1535, Metabolic Activation: RAT, LIVER, S-9, AROCLOR 1254, Method: PREINCUBATION inactive; negative | [9] inactive; negative | [10] inactive; negative | [11] inactive; negative | Test System: E. COLI, Strain/Indicator: WP2 UVRA, Metabolic Activation: NONE, Method: STANDARD PLATE inactive; negative | Test System: E. COLI, Strain/Indicator: WP2 UVRA, Metabolic Activation: RAT, LIVER, S-9, AROCLOR 1254, Method: STANDARD PLATE inactive; negative | Test System: MOUSE LYMPHOMA, Strain/Indicator: L5178Y (TK+/TK-), Metabolic Activation: RAT, LIVER, S-9, AROCLOR 1254, Method: SUSPENSION/PLATE inactive; negative
active: End Point: IN VITRO CHROMOSOMAL ABERRATIONS, Test System: CHO-LB CELLS, Metabolic Activation: RAT, LIVER, S-9, AROCLOR 1254 active; positive | Test System: AMES SALMONELLA TYPHIMURIUM, Strain/Indicator: TA97, Metabolic Activation: HAMSTER, LIVER, S-9, AROCLOR 1254 (10%), Method: PREINCUBATION active; positive | Test System: AMES SALMONELLA TYPHIMURIUM, Strain/Indicator: TA97, Metabolic Activation: HAMSTER, LIVER, S-9, AROCLOR 1254, Method: PREINCUBATION active; positive | Test System: AMES SALMONELLA TYPHIMURIUM, Strain/Indicator: TA97, Metabolic Activation: NONE, Method: PREINCUBATION active; positive | Test System: AMES SALMONELLA TYPHIMURIUM, Strain/Indicator: TA97, Metabolic Activation: RAT, LIVER, S-9, AROCLOR 1254 (10%), Method: PREINCUBATION active; positive | Test System: AMES SALMONELLA TYPHIMURIUM, Strain/Indicator: TA97, Metabolic Activation: RAT, LIVER, S-9, AROCLOR 1254, Method: PREINCUBATION active; positive | Test System: AMES SALMONELLA TYPHIMURIUM, Strain/Indicator: TA98, Metabolic Activation: HAMSTER, LIVER, S-9, AROCLOR 1254 (10%), Method: PREINCUBATION active; positive | Test System: AMES SALMONELLA TYPHIMURIUM, Strain/Indicator: TA98, Metabolic Activation: HAMSTER, LIVER, S-9, AROCLOR 1254, Method: PREINCUBATION active; positive | [1] active; positive | Test System: AMES SALMONELLA TYPHIMURIUM, Strain/Indicator: TA98, Metabolic Activation: RAT, LIVER, S-9, AROCLOR 1254 (10%), Method: PREINCUBATION active; positive | Test System: AMES SALMONELLA TYPHIMURIUM, Strain/Indicator: TA98, Metabolic Activation: RAT, LIVER, S-9, AROCLOR 1254, Method: PREINCUBATION active; positive | Test System: AMES SALMONELLA TYPHIMURIUM, Strain/Indicator: TA100, Metabolic Activation: HAMSTER, LIVER, S-9, AROCLOR 1254 (10%), Method: PREINCUBATION active; positive | Test System: AMES SALMONELLA TYPHIMURIUM, Strain/Indicator: TA100, Metabolic Activation: HAMSTER, LIVER, S-9, AROCLOR 1254, Method: PREINCUBATION active; positive | [4] active; positive | Test System: AMES SALMONELLA TYPHIMURIUM, Strain/Indicator: TA100, Metabolic Activation: RAT, LIVER, S-9, AROCLOR 1254 (10%), Method: PREINCUBATION active; positive | Test System: AMES SALMONELLA TYPHIMURIUM, Strain/Indicator: TA100, Metabolic Activation: RAT, LIVER, S-9, AROCLOR 1254, Method: PREINCUBATION active; positive | Test System: UDS MONKEY PRIMARY HEPATOCYTES, Strain/Indicator: THY INCORP (NON-S-PHASE), Metabolic Activation: NONE, Method: AUTORADIOGRAPHY active; positive | Test System: UDS RODENT PRIMARY HEPATOCYTES, Strain/Indicator: THY INCORP (NON-S-PHASE), Metabolic Activation: NONE, Method: AUTORADIOGRAPHY active; positive

C=CC(O)C=C
active: Test System: AMES SALMONELLA TYPHIMURIUM, Strain/Indicator: TA100, Metabolic Activation: S-9, Method: PREINCUBATION active; positive
inactive: [1] inactive; negative | Test System: AMES SALMONELLA TYPHIMURIUM, Strain/Indicator: TA98, Metabolic Activation: S-9, Method: PREINCUBATION inactive; negative | [4] inactive; negative | [7] inactive; negative | Test System: AMES SALMONELLA TYPHIMURIUM, Strain/Indicator: TA1535, Metabolic Activation: S-9, Method: PREINCUBATION inactive; negative | Test System: E.COLI, Strain/Indicator: WP2UVRA/PKM101, Metabolic Activation: NONE, Method: PREINCUBATION inactive; negative | Test System: E.COLI, Strain/Indicator: WP2UVRA/PKM101, Metabolic Activation: S-9, Method: PREINCUBATION inactive; negative

O=S(=O)(Nc1ccc(Cl)cc1Cl)c1cccc2cccnc12
inactive: [2] inactive; negative | [3] inactive; negative | [5] inactive; negative | [6] inactive; negative | [8] inactive; negative | [9] inactive; negative | [10] inactive; negative | [11] inactive; negative
